PubChem BioAssay (NCI)
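A five-concentration, 48-hour dose response in 96-well plates underlies each endpoint, interpolated linearly between surrounding concentrations. GI50 = concentration required for 50% inhibition of growth. TGI denotes the concentration required for complete inhibition of growth.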

How the values were obtained:
Assay in all cases: NCI-60 cell line screen, 48 h
RXF 393 renal = tested on: RXF 393 renal
SK-MEL-28 melanoma = tested on: SK-MEL-28 melanoma
OVCAR-3 ovarian = tested on: OVCAR-3 ovarian
SK-MEL-5 melanoma = tested on: SK-MEL-5 melanoma
A498 renal = tested on: A498 renal
NCI-H460 lung = tested on: NCI-H460 lung
MDA-MB-231 breast = tested on: MDA-MB-231 breast
IGROV1 ovarian = tested on: IGROV1 ovarian
UO-31 renal = tested on: UO-31 renal
TK-10 renal = tested on: TK-10 renal
SR leukemia = tested on: SR leukemia
ACHN renal = tested on: ACHN renal
MDA-MB-435 = tested on: MDA-MB-435
RPMI-8226 leukemia = tested on: RPMI-8226 leukemia
SK-OV-3 ovarian = tested on: SK-OV-3 ovarian
MCF7 breast = tested on: MCF7 breast
HL-60(TB) leukemia = tested on: HL-60(TB) leukemia
K-562 leukemia = tested on: K-562 leukemia
SW-620 colon = tested on: SW-620 colon
SNB-19 CNS = tested on: SNB-19 CNS
MDA-MB-468 breast = tested on: MDA-MB-468 breast
OVCAR-5 ovarian = tested on: OVCAR-5 ovarian
HCT-15 colon = tested on: HCT-15 colon
OVCAR-4 ovarian = tested on: OVCAR-4 ovarian
PC-3 prostate = tested on: PC-3 prostate
NCI-H226 lung = tested on: NCI-H226 lung
LOX IMVI melanoma = tested on: LOX IMVI melanoma
HCC-2998 colon = tested on: HCC-2998 colon
CCRF-CEM leukemia = tested on: CCRF-CEM leukemia
KM12 colon = tested on: KM12 colon
SNB-75 CNS = tested on: SNB-75 CNS
CAKI-1 renal = tested on: CAKI-1 renal
NCI-H522 lung = tested on: NCI-H522 lung
HS 578T breast = tested on: HS 578T breast
HCT-116 colon = tested on: HCT-116 colon
M14 melanoma = tested on: M14 melanoma
SK-MEL-2 melanoma = tested on: SK-MEL-2 melanoma
U251 CNS = tested on: U251 CNS
SN12C renal = tested on: SN12C renal
COLO 205 colon = tested on: COLO 205 colon
UACC-62 melanoma = tested on: UACC-62 melanoma
HOP-92 NSCLC = tested on: HOP-92 NSCLC
BT-549 breast = tested on: BT-549 breast
SF-539 CNS = tested on: SF-539 CNS
SF-268 CNS = tested on: SF-268 CNS
T-47D breast = tested on: T-47D breast
HT29 colon = tested on: HT29 colon
UACC-257 melanoma = tested on: UACC-257 melanoma
786-0 renal = tested on: 786-0 renal
HOP-62 NSCLC = tested on: HOP-62 NSCLC
EKVX NSCLC = tested on: EKVX NSCLC
OVCAR-8 ovarian = tested on: OVCAR-8 ovarian
MOLT-4 leukemia = tested on: MOLT-4 leukemia
DU-145 prostate = tested on: DU-145 prostate
A549 NSCLC = tested on: A549 NSCLC
MALME-3M melanoma = tested on: MALME-3M melanoma
NCI-H23 lung = tested on: NCI-H23 lung
SF-295 CNS = tested on: SF-295 CNS
NCI/ADR-RES ovarian = tested on: NCI/ADR-RES ovarian

COc1ccc(Cc2nn(CC(=O)N/N=C/c3ccc(F)cc3)c(=O)c3c(C)noc23)cc1
GI50 (RXF 393 renal): 2420 nM | TGI (RXF 393 renal): 6.47 µM | GI50 (SK-MEL-28 melanoma): 6.9 µM | TGI (SK-MEL-28 melanoma): 21.8 µM | GI50 (OVCAR-3 ovarian): 3.44 µM | TGI (OVCAR-3 ovarian): 11.2 µM | GI50 (SK-MEL-5 melanoma): 12.8 µM | TGI (SK-MEL-5 melanoma): 33.4 µM | GI50 (A498 renal): 1830 nM | TGI (A498 renal): 3.73 µM | GI50 (NCI-H460 lung): 3.27 µM | TGI (NCI-H460 lung): 11.3 µM | GI50 (MDA-MB-231 breast): 5.66 µM | TGI (MDA-MB-231 breast): 19.5 µM | GI50 (IGROV1 ovarian): 7.58 µM | TGI (IGROV1 ovarian): 22.8 µM | GI50 (UO-31 renal): 1790 nM | TGI (UO-31 renal): 3.84 µM | GI50 (TK-10 renal): 2400 nM | TGI (TK-10 renal): 6.39 µM | GI50 (SR leukemia): 16.1 µM | TGI (SR leukemia): > 100 µM | GI50 (ACHN renal): 1950 nM | TGI (ACHN renal): 3.83 µM | GI50 (MDA-MB-435): 9.52 µM | TGI (MDA-MB-435): 31.3 µM | GI50 (RPMI-8226 leukemia): 9.01 µM | TGI (RPMI-8226 leukemia): > 100 µM | GI50 (SK-OV-3 ovarian): 1990 nM | TGI (SK-OV-3 ovarian): 3.97 µM | GI50 (MCF7 breast): 8.44 µM | TGI (MCF7 breast): 35.1 µM | GI50 (HL-60(TB) leukemia): 68.8 µM | TGI (HL-60(TB) leukemia): > 100 µM | GI50 (K-562 leukemia): 31.4 µM | TGI (K-562 leukemia): > 100 µM | GI50 (SW-620 colon): 5.59 µM | TGI (SW-620 colon): 22.9 µM | GI50 (SNB-19 CNS): 4.48 µM | TGI (SNB-19 CNS): 20.4 µM | GI50 (MDA-MB-468 breast): 3.87 µM | TGI (MDA-MB-468 breast): 17.7 µM | GI50 (OVCAR-5 ovarian): 7.18 µM | TGI (OVCAR-5 ovarian): 25.1 µM | GI50 (HCT-15 colon): 9.27 µM | TGI (HCT-15 colon): 89.3 µM | GI50 (OVCAR-4 ovarian): 1800 nM | TGI (OVCAR-4 ovarian): 3.47 µM | GI50 (PC-3 prostate): 5.43 µM | TGI (PC-3 prostate): 23.4 µM | GI50 (NCI-H226 lung): 1800 nM | TGI (NCI-H226 lung): 4.61 µM | GI50 (LOX IMVI melanoma): 4.65 µM | TGI (LOX IMVI melanoma): 22 µM | GI50 (HCC-2998 colon): 5.46 µM | TGI (HCC-2998 colon): 19.7 µM | GI50 (CCRF-CEM leukemia): 9.65 µM | TGI (CCRF-CEM leukemia): > 100 µM | GI50 (KM12 colon): 26.5 µM | TGI (KM12 colon): > 100 µM | GI50 (SNB-75 CNS): 2000 nM | TGI (SNB-75 CNS): 4.49 µM | GI50 (CAKI-1 renal): 2020 nM | TGI (CAKI-1 renal): 4.62 µM | GI50 (NCI-H522 lung): 10.4 µM | TGI (NCI-H522 lung): 31.2 µM | GI50 (HS 578T breast): 3.19 µM | TGI (HS 578T breast): 15.1 µM | GI50 (HCT-116 colon): 2470 nM | TGI (HCT-116 colon): 6.77 µM | GI50 (M14 melanoma): 8.67 µM | TGI (M14 melanoma): 38 µM | GI50 (SK-MEL-2 melanoma): 12.1 µM | TGI (SK-MEL-2 melanoma): 29.5 µM | GI50 (U251 CNS): 2650 nM | TGI (U251 CNS): 8.07 µM | GI50 (SN12C renal): 2360 nM | TGI (SN12C renal): 6.08 µM | GI50 (COLO 205 colon): 8.3 µM | TGI (COLO 205 colon): 35.2 µM | GI50 (UACC-62 melanoma): 8.63 µM | TGI (UACC-62 melanoma): 25.1 µM | GI50 (HOP-92 NSCLC): 2340 nM | TGI (HOP-92 NSCLC): 6.97 µM | GI50 (BT-549 breast): 12.2 µM | TGI (BT-549 breast): 35.7 µM | GI50 (SF-539 CNS): 10.5 µM | TGI (SF-539 CNS): 22.8 µM | GI50 (SF-268 CNS): 5.81 µM | TGI (SF-268 CNS): 36.9 µM | GI50 (T-47D breast): 2240 nM | TGI (T-47D breast): 5.88 µM | GI50 (HT29 colon): 10.9 µM | TGI (HT29 colon): 25.5 µM | GI50 (UACC-257 melanoma): 6.33 µM | TGI (UACC-257 melanoma): 29.1 µM | GI50 (786-0 renal): 2120 nM | TGI (786-0 renal): 4.63 µM | GI50 (HOP-62 NSCLC): 1930 nM | TGI (HOP-62 NSCLC): 4.04 µM | GI50 (EKVX NSCLC): 4.39 µM | TGI (EKVX NSCLC): 21.4 µM | GI50 (OVCAR-8 ovarian): 6.96 µM | TGI (OVCAR-8 ovarian): 60.6 µM | GI50 (MOLT-4 leukemia): 22.6 µM | TGI (MOLT-4 leukemia): > 100 µM | GI50 (DU-145 prostate): 5.87 µM | TGI (DU-145 prostate): 18.8 µM | GI50 (A549 NSCLC): 3.02 µM | TGI (A549 NSCLC): 10.1 µM | GI50 (MALME-3M melanoma): 3.63 µM | TGI (MALME-3M melanoma): 15 µM | GI50 (NCI-H23 lung): 6.72 µM | TGI (NCI-H23 lung): 20.9 µM | GI50 (SF-295 CNS): 2070 nM | TGI (SF-295 CNS): 4.86 µM | GI50 (NCI/ADR-RES ovarian): 4.03 µM | TGI (NCI/ADR-RES ovarian): 17.2 µM
